Legend:
Format in all cases: in vivo
[1] = tested on: upland rice (Oryza sp., var. Tebonnet, RICE); experiment: Pre-emerge test, crop safety; details: pre-emerge, 14 days after application; for phytotoxicity rating RICE (crop damage): scale 0-100; for phytotoxicity rating RICE: rating scale 0-100
In short: (§1)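 Herbicidal damage is scored 0 (none) to 100 (complete plant death) two weeks after a simulated field spray. Rates span 15–1000 g ai/ha, delivered in acetone at 187 l/ha. For post-emergence treatments, plants have 2–3 leaves and the spray carries 0.25% v/v non-ionic surfactant.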

[2] = tested on: field corn (Zea mays L., var. Dekalb 535, CORN); experiment: Pre-emerge test, crop safety; details: pre-emerge, 14 days after application; for phytotoxicity rating CORN (crop damage): scale 0-100; for phytotoxicity rating CORN: rating scale 0-100
In short: as §1

[3] = tested on: upland rice (Oryza sp., var. Tebonnet, RICE); experiment: Post-emerge test, crop safety; details: post-emerge, 14 days after application, rating scale 0-100
In short: (§2)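 Plants grown in 10 cm pots of sandy loam mix received acetone-dissolved compounds through a moving flat-fan nozzle. Doses ranged from 15 to 1000 g ai/ha. Pre-emerge pots were seeded one day earlier, post-emerge pots 8–21 days earlier. Fourteen days on, each pot was graded 0–100 for damage.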

[4] = tested on: field corn (Zea mays L., var. Dekalb 535, CORN); experiment: Post-emerge test, crop safety; details: post-emerge, 14 days after application, rating scale 0-100
In short: as §2

[5] = tested on: redroot pigweed (Amaranthus retroflexus, AMARE); experiment: Pre-emerge test, greenhouse herbicide activity screening; details: pre-emerge, 14 days after application
In short: as §1

[6] = tested on: lambsquarters (Chenopodium album, CHEAL); experiment: as above; details: pre-emerge, 14 days after application
In short: (§3)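 Rating: 0–100 visual injury, 14 DAA. Application: acetone, 187 l/ha, 15–1000 g ai/ha, flat-fan track sprayer with nozzle 40–45 cm above soil or canopy. Post-emerge runs used 0.25% v/v surfactant on 2–3 leaf plants.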

[7] = tested on: ivyleaf morningglory (Ipomoea hederacea, IPOHE); experiment: as above; details: pre-emerge, 14 days after application
In short: as §3

[8] = tested on: sicklepod (Cassia obtusifolia, CASOB); experiment: as above; details: pre-emerge, 14 days after application
In short: as §3

[9] = tested on: large crabgrass (Digitaria sanguinalis, DIGSA); experiment: as above; details: pre-emerge, 14 days after application
In short: as §3

[10] = tested on: barnyardgrass (Echinochloa crus-galli, ECHCG); experiment: as above; details: pre-emerge, 14 days after application
In short: as §3

[11] = tested on: velvetleaf (Abutilon theophrasti, ABUTH); experiment: as above; details: pre-emerge, 14 days after application
In short: as §3

[12] = tested on: johnsongrass (Sorghum halepense, SORHA); experiment: as above; details: pre-emerge, 14 days after application
In short: as §3

[13] = tested on: green foxtail (Setaria viridis, SETVI); experiment: as above; details: pre-emerge, 14 days after application
In short: as §3

[14] = tested on: lambsquarters (Chenopodium album, CHEAL); experiment: Post-emerge test, greenhouse herbicide activity screening; details: post-emerge, 14 days after application, rating scale 0-100
In short: as §2

[15] = tested on: ivyleaf morningglory (Ipomoea hederacea, IPOHE); experiment: as above; details: post-emerge, 14 days after application, rating scale 0-100
In short: as §2

[16] = tested on: sicklepod (Cassia obtusifolia, CASOB); experiment: as above; details: post-emerge, 14 days after application, rating scale 0-100
In short: as §2

[17] = tested on: large crabgrass (Digitaria sanguinalis, DIGSA); experiment: as above; details: post-emerge, 14 days after application, rating scale 0-100
In short: as §2

[18] = tested on: barnyardgrass (Echinochloa crus-galli, ECHCG); experiment: as above; details: post-emerge, 14 days after application, rating scale 0-100
In short: as §2

[19] = tested on: redroot pigweed (Amaranthus retroflexus, AMARE); experiment: as above; details: post-emerge, 14 days after application
In short: as §2

[20] = tested on: velvetleaf (Abutilon theophrasti, ABUTH); experiment: as above; details: post-emerge, 14 days after application, rating scale 0-100
In short: as §2

[21] = tested on: johnsongrass (Sorghum halepense, SORHA); experiment: as above; details: post-emerge, 14 days after application, rating scale 0-100
In short: as §2

[22] = tested on: green foxtail (Setaria viridis, SETVI); experiment: as above; details: post-emerge, 14 days after application, rating scale 0-100
In short: as §2

[23] = 250 g ai/ha, rating scale 0-100

For `COc1c(Cl)cc(F)c(-n2c(=O)cc(C(F)(F)F)n(C)c2=O)c1NC(=O)c1c(C)cccc1C` [2-124], the “phytotoxicity rating RICE (crop damage)” value ([1]; 63 g ai/ha) was 0, the “phytotoxicity rating RICE (crop damage)” value ([1]; 250 g ai/ha) was 10 and the “phytotoxicity rating CORN (crop damage)” value ([2]; 63 g ai/ha) was 0. For the same molecule, the “phytotoxicity rating CORN (crop damage)” value ([2]; 250 g ai/ha) was 0, the “RICE phytotoxicity rating (crop damage)” value ([3]; 63 g ai/ha) was 0 and the “RICE phytotoxicity rating (crop damage)” value ([3]; 250 g ai/ha) was 0. For the same molecule, the “CORN phytotoxicity rating (crop damage)” value ([4]; 63 g ai/ha) was 0, the “CORN phytotoxicity rating (crop damage)” value ([4]; 250 g ai/ha) was 5 and the “phytotoxicity rating AMARE” value ([5]; 63 g ai/ha, scale 0-100) was 40. The “phytotoxicity rating AMARE” value ([5]; 250 g ai/ha, scale 0-100) was 100, the “phytotoxicity rating CHEAL” value ([6]; 63 g ai/ha, scale 0-100) was 20 and the “phytotoxicity rating CHEAL” value ([6]; 250 g ai/ha, scale 0-100) was 80. For the same molecule, the “phytotoxicity rating IPOHE” value ([7]; 63 g ai/ha, scale 0-100) was 0, the “phytotoxicity rating IPOHE” value ([7]; 250 g ai/ha, scale 0-100) was 20 and the “phytotoxicity rating CASOB” value ([8]; 63 g ai/ha, scale 0-100) was 0. The “phytotoxicity rating CASOB” value ([8]; 250 g ai/ha, scale 0-100) was 20, the “phytotoxicity rating DIGSA” value ([9]; 63 g ai/ha, scale 0-100) was 0 and the “phytotoxicity rating DIGSA” value ([9]; 250 g ai/ha, scale 0-100) was 0. The “phytotoxicity rating ECHCG” value ([10]; 63 g ai/ha, scale 0-100) was 0, the “phytotoxicity rating ECHCG” value ([10]; 250 g ai/ha, scale 0-100) was 0 and the “phytotoxicity rating ABUTH” value ([11]; 63 g ai/ha, scale 0-100) was 0. The “phytotoxicity rating ABUTH” value ([11]; 250 g ai/ha, scale 0-100) was 80, the “phytotoxicity rating SORHA” value ([12]; 63 g ai/ha, scale 0-100) was 0 and the “phytotoxicity rating SORHA” value ([12]; 250 g ai/ha, scale 0-100) was 0. For the same molecule, the “phytotoxicity rating SETVI” value ([13]; 63 g ai/ha, scale 0-100) was 0, the “phytotoxicity rating SETVI” value ([13]; 250 g ai/ha, scale 0-100) was 10 and the CHEAL phytotoxicity rating ([14]; 63 g ai/ha) was 30. For the same molecule, the CHEAL phytotoxicity rating ([14]; 250 g ai/ha) was 50, the IPOHE phytotoxicity rating ([15]; 63 g ai/ha) was 20 and the IPOHE phytotoxicity rating ([15]; 250 g ai/ha) was 30. It also gave a CASOB phytotoxicity rating ([16]; 63 g ai/ha) of 0, a CASOB phytotoxicity rating ([16]; 250 g ai/ha) of 20 and a DIGSA phytotoxicity rating ([17]; 63 g ai/ha) of 0. For the same molecule, the DIGSA phytotoxicity rating ([17]; 250 g ai/ha) was 0, the ECHCG phytotoxicity rating ([18]; 63 g ai/ha) was 0 and the ECHCG phytotoxicity rating ([18]; 250 g ai/ha) was 0. For the same molecule, the AMARE phytotoxicity rating ([19]; 63 g ai/ha, rating scale 0-100) was 30, the AMARE phytotoxicity rating [19, 23] was 90 and the ABUTH phytotoxicity rating ([20]; 63 g ai/ha) was 40. For the same molecule, the ABUTH phytotoxicity rating ([20]; 250 g ai/ha) was 95, the SORHA phytotoxicity rating ([21]; 63 g ai/ha) was 0 and the SORHA phytotoxicity rating ([21]; 250 g ai/ha) was 0. The SETVI phytotoxicity rating ([22]; 63 g ai/ha) was 0 and the SETVI phytotoxicity rating ([22]; 250 g ai/ha) was 0.
`COc1c(Cl)cc(F)c(-n2c(=O)cc(C(F)(F)F)n(C)c2=O)c1NN=CC1CC1` [Compound 15-11] was tested, and the “phytotoxicity rating RICE” value ([1]; 63 g ai/ha) was 100, the “phytotoxicity rating RICE” value ([1]; 250 g ai/ha) was 100 and the “phytotoxicity rating CORN” value ([2]; 63 g ai/ha) was 100. The “phytotoxicity rating CORN” value ([2]; 250 g ai/ha) was 100, the “Post-emerge Herbicidal Activity RICE (crop damage rating)” value ([3]; 63 g ai/ha) was 65 and the “Post-emerge Herbicidal Activity RICE (crop damage rating)” value ([3]; 250 g ai/ha) was 99. The “Post-emerge Herbicidal Activity CORN (crop damage rating)” value ([4]; 63 g ai/ha) was 45, the “Post-emerge Herbicidal Activity CORN (crop damage rating)” value ([4]; 250 g ai/ha) was 85 and the “phytotoxicity rating AMARE” value ([5]; 63 g ai/ha, rating scale 0-100) was 100. For the same molecule, the “phytotoxicity rating AMARE” value [5, 23] was 100, the “phytotoxicity rating CHEAL” value ([6]; 63 g ai/ha, rating scale 0-100) was 100 and the “phytotoxicity rating CHEAL” value [6, 23] was 100. For the same molecule, the “phytotoxicity rating IPOHE” value ([7]; 63 g ai/ha, rating scale 0-100) was 100, the “phytotoxicity rating IPOHE” value [7, 23] was 100 and the “phytotoxicity rating CASOB” value ([8]; 63 g ai/ha, rating scale 0-100) was 100. The “phytotoxicity rating CASOB” value [8, 23] was 100, the “phytotoxicity rating DIGSA” value ([9]; 63 g ai/ha, rating scale 0-100) was 100 and the “phytotoxicity rating DIGSA” value [9, 23] was 100. The “phytotoxicity rating ECHCG” value ([10]; 63 g ai/ha, rating scale 0-100) was 100, the “phytotoxicity rating ECHCG” value [10, 23] was 100 and the “phytotoxicity rating ABUTH” value ([11]; 63 g ai/ha, rating scale 0-100) was 100. The “phytotoxicity rating ABUTH” value [11, 23] was 100, the “phytotoxicity rating SORHA” value ([12]; 63 g ai/ha, rating scale 0-100) was 100 and the “phytotoxicity rating SORHA” value [12, 23] was 100. The “phytotoxicity rating SETVI” value ([13]; 63 g ai/ha, rating scale 0-100) was 100, the “phytotoxicity rating SETVI” value [13, 23] was 100 and the “Post-emerge Herbicidal Activity CHEAL (phytotoxicity rating)” value ([14]; 63 g ai/ha) was 100. For the same molecule, the “Post-emerge Herbicidal Activity CHEAL (phytotoxicity rating)” value ([14]; 250 g ai/ha) was 100, the “Post-emerge Herbicidal Activity IPOHE (phytotoxicity rating)” value ([15]; 63 g ai/ha) was 100 and the “Post-emerge Herbicidal Activity IPOHE (phytotoxicity rating)” value ([15]; 250 g ai/ha) was 100. For the same molecule, the “Post-emerge Herbicidal Activity CASOB (phytotoxicity rating)” value ([16]; 63 g ai/ha) was 90, the “Post-emerge Herbicidal Activity CASOB (phytotoxicity rating)” value ([16]; 250 g ai/ha) was 100 and the “Post-emerge Herbicidal Activity DIGSA (phytotoxicity rating)” value ([17]; 63 g ai/ha) was 50. The “Post-emerge Herbicidal Activity DIGSA (phytotoxicity rating)” value ([17]; 250 g ai/ha) was 95, the “Post-emerge Herbicidal Activity ECHCG (phytotoxicity rating)” value ([18]; 63 g ai/ha) was 50 and the “Post-emerge Herbicidal Activity ECHCG (phytotoxicity rating)” value ([18]; 250 g ai/ha) was 99. For the same molecule, the “Post-emerge Herbicidal Activity AMARE (phytotoxicity rating)” value ([19]; 63 g ai/ha, rating scale 0-100 (0 no damage, 100 complete death)) was 95, the “Post-emerge Herbicidal Activity AMARE (phytotoxicity rating)” value [19, 23] was 100 and the “Post-emerge Herbicidal Activity ABUTH (phytotoxicity rating)” value ([20]; 63 g ai/ha) was 100. For the same molecule, the “Post-emerge Herbicidal Activity ABUTH (phytotoxicity rating)” value ([20]; 250 g ai/ha) was 100, the “Post-emerge Herbicidal Activity SORHA (phytotoxicity rating)” value ([21]; 63 g ai/ha) was 50 and the “Post-emerge Herbicidal Activity SORHA (phytotoxicity rating)” value ([21]; 250 g ai/ha) was 99. For the same molecule, the “Post-emerge Herbicidal Activity SETVI (phytotoxicity rating)” value ([22]; 63 g ai/ha) was 40 and the “Post-emerge Herbicidal Activity SETVI (phytotoxicity rating)” value ([22]; 250 g ai/ha) was 80.

Reference: patent US6355799B1, “Substituted benzene compounds, process for their preparation, and herbicidal and defoliant compositions containing them” (ISK Americas Incorporated, priority 1997, dated 2002)
